Measured values taken from ChEMBL document CHEMBL1201862, “PubChem BioAssay data set” (2004).
Calls of active or inactive are those of the source.

Experiments:
cells [1] = format: functional, cell-based
cells [2] = format: functional, cell-based; remark: listed apart in the source
Cytochrome P450 2C9 = Cytochrome P450 2C9 (Homo sapiens, UniProt P11712)
Cytochrome P450 2D6 = Cytochrome P450 2D6 (Homo sapiens, UniProt P10635);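 note: CYP2D6 member of a cytochrome P450 panel assay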
Cytochrome P450 1A2 = target: T1, Cytochrome P450 1A2 (Homo sapiens, UniProt P05177);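 note: PubChem cytochrome P450 panel assay, CYP1A2 panel member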
T1 sequence (P05177 whole entry): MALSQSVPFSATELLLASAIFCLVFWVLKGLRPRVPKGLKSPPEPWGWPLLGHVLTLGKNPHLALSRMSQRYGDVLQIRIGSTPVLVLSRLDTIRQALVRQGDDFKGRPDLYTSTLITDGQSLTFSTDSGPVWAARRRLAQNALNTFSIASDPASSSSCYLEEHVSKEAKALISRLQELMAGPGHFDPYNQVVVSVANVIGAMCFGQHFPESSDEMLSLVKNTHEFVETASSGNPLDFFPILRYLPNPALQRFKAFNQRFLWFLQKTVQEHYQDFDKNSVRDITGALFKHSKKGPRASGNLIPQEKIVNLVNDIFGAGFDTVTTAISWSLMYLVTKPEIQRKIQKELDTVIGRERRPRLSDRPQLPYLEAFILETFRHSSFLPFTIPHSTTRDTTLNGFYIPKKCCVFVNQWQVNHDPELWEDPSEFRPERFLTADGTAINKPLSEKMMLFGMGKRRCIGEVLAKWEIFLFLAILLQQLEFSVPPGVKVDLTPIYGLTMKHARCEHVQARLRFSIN

Fatty acid synthase [3] = target: T2, Fatty acid synthase (Homo sapiens, UniProt P49327); assay: inhibition of human FAS-TE enzyme activity – biochemical, kinetic fluorescence intensity, dose response (AID 624326); format: functional;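 note: rate of fluorescence rise from hydrolysis of a fluorogenic O-methyl fluorescein ester substrate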
Fatty acid synthase [4] = target: T2, Fatty acid synthase; assay: inhibition of human FAS-TE enzyme activity – biochemical, endpoint fluorescence intensity, uHTS hits, dose response (AID 624327); format: functional;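 note: fluorescence from hydrolysis of an O-methyl fluorescein acyl ester substrate by the enzyme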
[5] = target: T3, Carboxy-terminal domain RNA polymerase II polypeptide A small phosphatase 1 (Homo sapiens, UniProt Q9GZU7); assay: CTDSP1 inhibitors, concentration-response, biochemical, absorbance readout, ultra-high-throughput screen actives (AID 540297); format: functional
T3 sequence (Q9GZU7 whole entry): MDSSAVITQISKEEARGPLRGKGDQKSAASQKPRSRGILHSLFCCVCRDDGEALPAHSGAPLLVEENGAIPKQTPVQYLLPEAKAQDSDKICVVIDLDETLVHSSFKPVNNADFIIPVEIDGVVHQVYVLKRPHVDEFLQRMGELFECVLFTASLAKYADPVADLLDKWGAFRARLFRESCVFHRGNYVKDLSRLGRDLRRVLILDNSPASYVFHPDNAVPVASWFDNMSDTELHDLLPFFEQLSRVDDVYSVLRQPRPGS

[6] = HIV-1 AD8 envelope cell-cell fusion blockers – cherry-pick, dose response (AID 652062); format: functional, cell-based;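 note: luciferase signal from cell-cell fusion driven by HIV-1 clade B AD8 Env; potency is for inhibitors of fusion seen as a drop in luminescence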
[7] = blockers of HIV-1 envelope-mediated cell-cell fusion – cherry-pick, dose response (AID 652057); format: functional, cell-based
Cytochrome P450 3A4 = Cytochrome P450 3A4 (Homo sapiens, UniProt P08684);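 note: CYP3A4 tested as one member of a cytochrome P450 panel screen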
Large T antigen = Large T antigen (Simian virus 40, UniProt P03070); format: functional, Betapolyomavirus macacae;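 note: Confirmatory-stage PubChem screen for compounds that inhibit SV40 T antigen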
cells [8] = format: functional
Genome polyprotein = Genome polyprotein (dengue virus type 2, UniProt P29990); assay: flavivirus cap methylation enzyme inhibition – biochemical, confirmation dose response, primary screen (AID 588689); format: functional
[9] = target: FAD-linked sulfhydryl oxidase ALR (Homo sapiens, UniProt P55789); assay: ALR-catalysed DTT oxidation blockers – biochemical, H2O2 detection, luminescence, cherry-pick, dose response (AID 493248)
Paired box protein Pax-8 = Paired box protein Pax-8 (Homo sapiens, UniProt Q06710); assay: PAX8 transcriptional activity inhibition in RMG-I – RMG-I cells, luciferase, cherry-pick, dose response (AID 687027); format: functional, cell-based;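 note: luciferase reporter driven by Pax8 target thyroperoxidase promoter measured by SteadyGlo luminescence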
[10] = OVCAR-3 cell viability loss – plate reader, dry powder samples, PAX8 inhibitor project, dose response (AID 743044); format: functional, cell-based

Sequence of Cytochrome P450 2C9 (P11712 whole entry): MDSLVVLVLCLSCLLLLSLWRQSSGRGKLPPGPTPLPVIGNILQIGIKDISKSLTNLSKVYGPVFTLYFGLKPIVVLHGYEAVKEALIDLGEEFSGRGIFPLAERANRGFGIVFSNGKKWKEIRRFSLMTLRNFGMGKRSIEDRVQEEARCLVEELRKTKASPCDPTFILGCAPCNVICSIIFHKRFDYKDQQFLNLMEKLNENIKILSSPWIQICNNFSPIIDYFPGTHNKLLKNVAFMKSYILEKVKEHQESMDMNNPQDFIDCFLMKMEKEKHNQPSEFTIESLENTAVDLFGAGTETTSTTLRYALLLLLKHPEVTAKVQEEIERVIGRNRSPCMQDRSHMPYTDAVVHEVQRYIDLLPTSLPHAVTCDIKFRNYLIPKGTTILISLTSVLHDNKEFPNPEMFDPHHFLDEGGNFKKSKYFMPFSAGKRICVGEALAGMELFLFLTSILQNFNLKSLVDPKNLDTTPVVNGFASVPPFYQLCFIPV
Sequence of Large T antigen (P03070 whole entry): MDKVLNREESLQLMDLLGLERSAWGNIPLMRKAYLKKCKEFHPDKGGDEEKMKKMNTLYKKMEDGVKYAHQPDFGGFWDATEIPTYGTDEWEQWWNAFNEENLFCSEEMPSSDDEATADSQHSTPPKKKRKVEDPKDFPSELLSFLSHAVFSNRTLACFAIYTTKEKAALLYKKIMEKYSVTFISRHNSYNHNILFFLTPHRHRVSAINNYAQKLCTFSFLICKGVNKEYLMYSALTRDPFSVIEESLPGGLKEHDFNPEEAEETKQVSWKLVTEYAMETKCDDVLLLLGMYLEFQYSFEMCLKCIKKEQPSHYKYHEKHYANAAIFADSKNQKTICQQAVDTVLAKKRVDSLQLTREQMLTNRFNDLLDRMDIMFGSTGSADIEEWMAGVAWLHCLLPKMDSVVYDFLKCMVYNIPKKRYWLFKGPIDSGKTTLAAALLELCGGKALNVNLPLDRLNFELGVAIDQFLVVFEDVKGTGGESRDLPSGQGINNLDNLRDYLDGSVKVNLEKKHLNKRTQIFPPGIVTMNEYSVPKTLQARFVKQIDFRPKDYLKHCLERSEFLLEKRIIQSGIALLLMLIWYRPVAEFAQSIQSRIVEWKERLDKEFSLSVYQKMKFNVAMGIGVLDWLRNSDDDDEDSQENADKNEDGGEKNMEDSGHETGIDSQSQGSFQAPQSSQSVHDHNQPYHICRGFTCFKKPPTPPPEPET
Sequence of Cytochrome P450 2D6 (P10635 whole entry): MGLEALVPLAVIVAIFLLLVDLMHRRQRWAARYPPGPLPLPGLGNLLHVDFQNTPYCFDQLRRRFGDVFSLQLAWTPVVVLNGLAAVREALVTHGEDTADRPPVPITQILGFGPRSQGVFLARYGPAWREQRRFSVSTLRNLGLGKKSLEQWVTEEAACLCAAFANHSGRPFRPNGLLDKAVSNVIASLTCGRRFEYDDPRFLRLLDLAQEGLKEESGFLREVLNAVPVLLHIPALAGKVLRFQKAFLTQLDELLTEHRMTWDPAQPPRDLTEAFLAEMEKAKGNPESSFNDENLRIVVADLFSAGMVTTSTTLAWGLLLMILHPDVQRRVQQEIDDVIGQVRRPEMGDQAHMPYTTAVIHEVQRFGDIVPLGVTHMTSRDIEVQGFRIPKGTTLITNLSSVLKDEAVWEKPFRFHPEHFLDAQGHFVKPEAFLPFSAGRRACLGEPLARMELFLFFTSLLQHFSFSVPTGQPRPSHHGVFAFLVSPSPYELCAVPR
Sequence of Paired box protein Pax-8 (Q06710 whole entry): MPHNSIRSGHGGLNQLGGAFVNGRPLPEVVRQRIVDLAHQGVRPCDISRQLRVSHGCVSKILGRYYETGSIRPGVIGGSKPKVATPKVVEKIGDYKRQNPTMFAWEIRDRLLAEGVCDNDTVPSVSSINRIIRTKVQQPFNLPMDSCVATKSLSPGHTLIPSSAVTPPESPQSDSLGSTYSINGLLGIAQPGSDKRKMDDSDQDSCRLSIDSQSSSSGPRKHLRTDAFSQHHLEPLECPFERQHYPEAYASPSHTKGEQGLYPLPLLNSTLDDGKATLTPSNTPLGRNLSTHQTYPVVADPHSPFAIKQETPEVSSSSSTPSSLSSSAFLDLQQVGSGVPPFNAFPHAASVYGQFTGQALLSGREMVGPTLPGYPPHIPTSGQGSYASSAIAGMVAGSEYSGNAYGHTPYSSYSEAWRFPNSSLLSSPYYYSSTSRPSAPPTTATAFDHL
T2 sequence (P49327 whole entry): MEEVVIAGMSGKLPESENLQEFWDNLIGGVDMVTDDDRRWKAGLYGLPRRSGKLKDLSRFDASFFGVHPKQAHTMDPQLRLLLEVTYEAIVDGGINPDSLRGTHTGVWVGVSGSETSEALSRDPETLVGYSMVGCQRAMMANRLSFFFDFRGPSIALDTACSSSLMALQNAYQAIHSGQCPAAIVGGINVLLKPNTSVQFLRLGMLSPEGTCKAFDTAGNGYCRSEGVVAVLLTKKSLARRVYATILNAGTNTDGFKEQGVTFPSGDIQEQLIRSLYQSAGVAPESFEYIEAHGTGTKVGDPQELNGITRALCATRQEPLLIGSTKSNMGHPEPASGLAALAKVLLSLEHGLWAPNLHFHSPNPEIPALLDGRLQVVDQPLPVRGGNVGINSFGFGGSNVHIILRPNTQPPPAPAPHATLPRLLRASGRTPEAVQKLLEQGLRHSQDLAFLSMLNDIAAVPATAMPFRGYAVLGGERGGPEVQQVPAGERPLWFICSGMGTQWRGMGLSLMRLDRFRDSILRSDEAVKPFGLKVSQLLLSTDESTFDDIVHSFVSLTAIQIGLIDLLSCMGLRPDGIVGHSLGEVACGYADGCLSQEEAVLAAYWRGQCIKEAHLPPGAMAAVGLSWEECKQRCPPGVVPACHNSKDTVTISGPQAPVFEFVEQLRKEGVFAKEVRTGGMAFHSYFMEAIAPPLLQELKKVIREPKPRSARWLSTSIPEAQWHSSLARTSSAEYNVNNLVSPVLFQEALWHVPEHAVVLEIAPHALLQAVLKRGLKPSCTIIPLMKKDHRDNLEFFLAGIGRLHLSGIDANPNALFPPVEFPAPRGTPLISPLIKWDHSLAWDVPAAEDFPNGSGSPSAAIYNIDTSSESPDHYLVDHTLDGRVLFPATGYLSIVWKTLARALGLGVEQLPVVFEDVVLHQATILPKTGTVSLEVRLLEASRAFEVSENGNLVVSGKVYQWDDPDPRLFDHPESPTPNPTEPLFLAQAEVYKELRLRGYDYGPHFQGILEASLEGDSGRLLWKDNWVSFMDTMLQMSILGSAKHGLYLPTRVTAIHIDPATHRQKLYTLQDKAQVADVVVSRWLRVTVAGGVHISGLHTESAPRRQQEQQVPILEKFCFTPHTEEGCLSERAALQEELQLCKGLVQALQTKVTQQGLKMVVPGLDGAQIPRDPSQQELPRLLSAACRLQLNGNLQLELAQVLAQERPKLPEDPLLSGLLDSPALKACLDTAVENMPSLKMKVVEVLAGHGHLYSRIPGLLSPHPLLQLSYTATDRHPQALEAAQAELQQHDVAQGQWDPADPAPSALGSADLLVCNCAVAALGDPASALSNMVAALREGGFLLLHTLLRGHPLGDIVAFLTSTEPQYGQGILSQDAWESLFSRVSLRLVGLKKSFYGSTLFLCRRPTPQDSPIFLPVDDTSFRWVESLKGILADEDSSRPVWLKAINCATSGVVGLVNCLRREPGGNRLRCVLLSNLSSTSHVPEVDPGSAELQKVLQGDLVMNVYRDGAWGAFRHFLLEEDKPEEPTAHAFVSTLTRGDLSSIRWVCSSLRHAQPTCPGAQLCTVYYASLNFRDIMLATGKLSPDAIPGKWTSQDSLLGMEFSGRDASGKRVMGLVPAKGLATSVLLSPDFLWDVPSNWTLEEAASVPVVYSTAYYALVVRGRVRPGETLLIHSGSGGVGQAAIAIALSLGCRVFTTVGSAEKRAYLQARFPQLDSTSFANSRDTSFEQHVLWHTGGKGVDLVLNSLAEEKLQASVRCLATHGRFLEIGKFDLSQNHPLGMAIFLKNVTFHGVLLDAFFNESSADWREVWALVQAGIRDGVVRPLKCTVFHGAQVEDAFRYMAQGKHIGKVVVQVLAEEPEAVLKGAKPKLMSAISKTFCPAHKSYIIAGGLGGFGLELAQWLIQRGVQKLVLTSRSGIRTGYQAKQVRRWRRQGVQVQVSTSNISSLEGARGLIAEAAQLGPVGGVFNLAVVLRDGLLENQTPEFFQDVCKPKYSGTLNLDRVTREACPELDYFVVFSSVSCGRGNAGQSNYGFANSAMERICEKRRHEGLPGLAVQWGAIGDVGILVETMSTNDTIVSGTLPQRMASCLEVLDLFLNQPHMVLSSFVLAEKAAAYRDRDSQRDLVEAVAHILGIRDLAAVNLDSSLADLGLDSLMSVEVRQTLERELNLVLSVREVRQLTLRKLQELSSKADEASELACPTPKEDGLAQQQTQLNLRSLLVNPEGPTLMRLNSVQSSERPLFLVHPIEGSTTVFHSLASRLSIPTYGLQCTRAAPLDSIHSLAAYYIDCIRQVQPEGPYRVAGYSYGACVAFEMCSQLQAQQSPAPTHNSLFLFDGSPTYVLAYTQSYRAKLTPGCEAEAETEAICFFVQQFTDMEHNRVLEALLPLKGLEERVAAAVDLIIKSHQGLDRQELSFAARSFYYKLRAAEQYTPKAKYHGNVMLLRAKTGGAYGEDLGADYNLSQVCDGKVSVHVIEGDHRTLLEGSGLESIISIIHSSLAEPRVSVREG
Sequence of FAD-linked sulfhydryl oxidase ALR (P55789 whole entry): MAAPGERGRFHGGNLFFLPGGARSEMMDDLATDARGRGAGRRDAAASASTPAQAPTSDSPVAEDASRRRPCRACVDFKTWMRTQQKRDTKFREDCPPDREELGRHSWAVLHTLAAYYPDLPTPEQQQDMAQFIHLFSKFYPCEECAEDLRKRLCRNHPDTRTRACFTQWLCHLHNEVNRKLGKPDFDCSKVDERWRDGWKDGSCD

O=C(NCC1CCCO1)c1cc(-c2ccc(F)cc2)no1 (centres undefined)
EC50 (cells [1]): > 350 µM (not active)
EC50 (cells [2]): 143 µM (active)

CCOc1ccccc1/C=C(\C#N)C(N)=O
AC50 (Cytochrome P450 2C9): inconclusive

COc1ccc(S(=O)(=O)N2CCN(CC(=O)Nc3cccc(F)c3)CC2)cc1
AC50 (Cytochrome P450 2C9): inconclusive
AC50 (Cytochrome P450 2D6): 25.1 µM (inconclusive)
AC50 (Cytochrome P450 1A2): 0.0794 µM (inconclusive)

Cc1cc(O)nc(SCC(=O)Nc2nonc2C)n1
EC50 (cells [1]): > 350 µM (not active)
EC50 (cells [2]): > 350 µM (not active)

COc1ccc(/C=C(\NC(=O)c2ccc([N+](=O)[O-])cc2)C(=O)NCCCn2ccnc2)cc1
IC50 (Fatty acid synthase [3]): 3.01 µM (active)
IC50 (Fatty acid synthase [4]): 2.35 µM (active)

O=C(COC(=O)c1ccc(S(=O)(=O)NCc2ccco2)cc1)Nc1ccc(Cl)cn1
IC50 [5]: 4.79 µM (active)

CCNC(=O)C[C@@H]1CC[C@@H]2[C@@H](COc3ccc(NC(=O)Cc4cccs4)cc3C(=O)N2C)O1
AC50 [6]: 41.5 µM (active)

O=C(c1cccnc1)c1cc2ccccc2[nH]1
EC50 (cells [1]): 31.3 µM (active)
EC50 (cells [2]): > 350 µM (not active)

C[C@H](CO)N1C[C@H](C)[C@H](CN(C)S(=O)(=O)c2cccs2)Oc2ccc(NC(=O)NC3CCCCC3)cc2CC1=O
AC50 [6]: 3.49 µM (active)
AC50 [7]: 1.19 µM (active)

COc1ccc(S(=O)(=O)NCCC(=O)NCc2ccc(F)cc2)cc1
AC50 (Cytochrome P450 2C9): inconclusive
AC50 (Cytochrome P450 3A4): 28.2 µM (inconclusive)
AC50 (Cytochrome P450 2D6): 50.1 µM (inconclusive)

N=C1/C(=C\c2ccc(Br)o2)C(=O)N=C2SC(CC(=O)N3CCCCC3)=NN12
IC50 [5]: 26.7 µM (active)
IC50 (Large T antigen): > 100 µM (active)

O=C(OCC(=O)N1CCN(c2ccccc2)CC1)c1ccc(Cl)cc1[N+](=O)[O-]
IC50 (cells [8]): > 50 µM (active)

O=C1NN(c2ccccc2)C(=O)/C1=C/c1ccc(-c2cccc(C(=O)O)c2)o1
IC50 (Genome polyprotein): 30.6 µM (active)
IC50 [5]: 11 µM (active)
AC50 [9]: 0.228 µM (active)
IC50 (Large T antigen): 24.3 µM (active)

COc1ccc2c(c1)c(=O)oc1c(C)c(OC(C)C(=O)N[C@@H](Cc3c[nH]c4ccc(O)cc34)C(=O)O)ccc12 (some centres undefined)
IC50 [5]: 6.88 µM (active)

C[C@H]1CN([C@@H](C)CO)S(=O)(=O)c2ccc(C#Cc3ccc(F)cc3)cc2O[C@H]1CN(C)C(=O)NC1CCCCC1
AC50 (Paired box protein Pax-8): 8.09 µM (active)
AC50 [10]: 44.5 µM (active)

O=C(C[C@@H]1C[C@H]2c3cc(NC(=O)Nc4ccc(C(F)(F)F)cc4)ccc3O[C@H]2[C@H](CO)O1)NCc1ccc(Cl)cc1
AC50 (Paired box protein Pax-8): 17.5 µM (active)
AC50 [10]: 68.2 µM (active)

O=C(C[C@H]1CC[C@@H](NC(=O)c2cccc(F)c2)[C@H](CO)O1)NCc1ccc(Oc2ccccc2)cc1
AC50 [6]: 1.17 µM (active)
AC50 [7]: 1.2 µM (active)

C[n+]1ccccc1C1CCCC/C1=N\NC(N)=S (centres undefined)
IC50 [5]: 5.71 µM (active)
